Source: PubChem BioAssay (NCI)
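Method: 48-hour compound exposure of cells in 96-well plates, five concentrations, linear interpolation of endpoints. GI50 marks 50% less growth. At the TGI there is no net growth.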

Legend:
Assay in all cases: growth of human tumour cells (NCI), 48 h
A549 NSCLC = tested on: A549 NSCLC
HCT-15 colon = tested on: HCT-15 colon
HT29 colon = tested on: HT29 colon
K-562 leukemia = tested on: K-562 leukemia
KM12 colon = tested on: KM12 colon
MALME-3M melanoma = tested on: MALME-3M melanoma
MCF7 breast = tested on: MCF7 breast
MDA-N = tested on: MDA-N
NCI-H23 lung = tested on: NCI-H23 lung
OVCAR-8 ovarian = tested on: OVCAR-8 ovarian
SK-MEL-2 melanoma = tested on: SK-MEL-2 melanoma

Structure (SMILES)	TGI (A549 NSCLC) [µM]	TGI (HCT-15 colon) [µM]	TGI (HT29 colon) [µM]	TGI (K-562 leukemia) [µM]	TGI (KM12 colon) [µM]	TGI (MALME-3M melanoma) [µM]	TGI (MCF7 breast) [µM]	TGI (MDA-N) [µM]	TGI (NCI-H23 lung) [µM]	TGI (OVCAR-8 ovarian) [µM]	TGI (SK-MEL-2 melanoma) [µM]	GI50 (A549 NSCLC) [µM]	GI50 (HCT-15 colon) [µM]	GI50 (HT29 colon) [µM]	GI50 (KM12 colon) [µM]	GI50 (MCF7 breast) [µM]	GI50 (MDA-N) [µM]	GI50 (NCI-H23 lung) [µM]	GI50 (OVCAR-8 ovarian) [µM]
Cc1c(C)c(S(=O)(=O)N(CCCCCON)OCCCN)c(C)c2c1OC(C)(C)CC2	26.1	28.5	22.2	> 40.3	27.3	27.4	21.8	27.3	29.6	23.9	29.1								
COC(=O)c1c(-c2ccccc2)c2sc3ccccc3n2c1N	> 100	> 100	> 100	> 100	88.8	68.1	> 100	> 100	> 100	> 100	70.7								
Nc1nc(N)c2nc(CNc3ccc(C(=O)NC(CCCCNC(=O)c4ccccc4C(=O)O)C(=O)O)cc3)cnc2n1 (stereo not drawn)	> 100	> 100	> 100	> 100	> 100	> 100	> 100	> 100	> 100	> 100	> 100	0.00745	0.00522	0.00566	0.00485	0.00496	0.00464	0.00915	0.0059
Cn1c2ccccc2c(=O)c2[nH]c3ccccc3c21	> 100	> 100	> 100	> 100	> 100	> 100	> 100	> 100	> 100	> 100	> 100								
CC(C)C(NCc1c(O)ccc2c(-c3ccccc3)cc(=O)oc12)C(=O)O (stereo not drawn)	> 100	> 100	> 100	> 100	> 100	> 100	> 100	> 100	> 100	> 100	> 100								
CC1=NN(C(=O)CC(=O)Nc2cccc(Cl)c2)C(=O)C1N=Nc1ccc(C(=O)O)cc1 (stereo not drawn)	> 100	> 100	> 100	> 100	> 100	> 100	> 100	> 100	> 100	> 100	> 100								
CN(C)CC1CN=C(NC(=O)Nc2ccccc2)O1 (stereo not drawn)	> 100	> 100	> 100	> 100	> 100	> 100	> 100	> 100	> 100	> 100	> 100								
Cc1nc2c(=O)n3c4c(cccc4c2o1)CCC3	> 100	> 100	> 100	> 100	> 100	> 100	> 100	> 100	> 100	> 100	> 100								
O=C1c2ccccc2-c2c1c(-c1cccc(Br)c1)nc1ccc3ccccc3c21	> 100	> 100	> 100	> 100	> 100	> 100	> 100	> 100	> 100	> 100	> 100								
C=C(C)C12CC3CC/C(=N/O)C(C1)C3(N1CCOCC1)C/C2=N/O (stereo not drawn)	> 100	> 100	> 100	> 100	> 100	> 100	> 100	> 100	> 100	> 100	> 100								
COc1ccc(N2C(=O)CC(c3c[nH]c4ncccc34)C2=O)cc1 (stereo not drawn)	> 100	59.3	40.5	24.9	> 100	40.5	> 76.9	20.1	> 58.4	42.4	> 100								
Cc1ncc([N+](=O)[O-])n1CCNC(=O)Cn1c([N+](=O)[O-])cnc1C	> 100	> 100	> 100	> 100	> 100	> 100	> 100	> 100	> 100	> 100	> 100								
COC(=O)c1ccc(NCc2cc(O)ccc2O)cc1	39.2	19.5	50.7	15.1	29.6	15.7	27.3	19	32.9	40.1	36.1								
CCOC(=O)C(=O)C(CCC(=O)c1ccc2ccccc2c1O)C(=O)OCC (stereo not drawn)	> 100	> 100	> 100	> 100	> 100	> 100	> 100	> 100	> 100	> 100	> 100								
OC(C/C=N/Nc1ccccc1)(C(F)(F)Cl)C(F)(F)Cl	> 10	> 10	> 10	> 10	> 10	> 10	> 10	> 10	> 10	> 10	> 10								
C=CCn1c(-c2ccc(-c3cs/c(=N\N=O)n3CC=C)cc2)cs/c1=N\N=O	> 100	> 100	> 100	> 100	> 100	> 100	> 100	> 100	> 100	> 100	> 100								
CC(C)(C)C1CCC2c3c([nH]c4ccccc34)C3C(=O)N(c4ccc5c(c4)C(=O)c4ccccc4C5=O)C(=O)C3C2C1 (stereo not drawn)	> 100	> 100	> 100	> 100	> 100	> 100	> 100	> 100	> 100	> 100	> 100								
S=C1N=C(Cl)/C(=C\c2ccccc2)N1	> 100	> 100	> 100	> 100	> 100	> 100	> 100	> 100	> 100	> 100	> 100								

Structure (SMILES)	TGI (A549 NSCLC) [µM]	TGI (HCT-15 colon) [µM]	TGI (HT29 colon) [µM]	TGI (K-562 leukemia) [µM]	TGI (KM12 colon) [µM]	TGI (MALME-3M melanoma) [µM]	TGI (MCF7 breast) [µM]	TGI (MDA-N) [µM]	TGI (NCI-H23 lung) [µM]	TGI (OVCAR-8 ovarian) [µM]	TGI (SK-MEL-2 melanoma) [µM]	GI50 (A549 NSCLC) [µM]	GI50 (HCT-15 colon) [µM]	GI50 (HT29 colon) [µM]	GI50 (KM12 colon) [µM]	GI50 (MCF7 breast) [µM]	GI50 (MDA-N) [µM]	GI50 (NCI-H23 lung) [µM]	GI50 (OVCAR-8 ovarian) [µM]
CCc1cc2c(oc3cc(C)ccc32)c(=O)n1C	> 10	> 10	> 10	> 10	> 10	> 10	> 10	> 10	> 10	> 10	> 10								
COc1ccc(N=[N+]([O-])c2ccc(OC)cc2)cc1	> 100	> 100	> 100	> 100	> 100	> 100	> 100	> 100	> 100	> 100	> 100								
CCC(=O)C(C(C)/C=C/CCSc1ccccc1)C(O)CCCCCC(=O)OC (stereo not drawn)	> 100	> 100	> 100	> 100	> 100	> 100	> 100	> 100	> 100	> 100	> 100								
CCOC(=O)/C(C#N)=C/c1ccc2c(c1)CC1(C2)Cc2cc(CC)c(C(C)O)cc2C1 (stereo not drawn)	> 100	20	39.5	> 52.5	38.8	24.4	23.9	5.16	39.5	44.4	27.2								
CC1=NN=C(N)NC1=CC(Sc1ccc(Cl)cc1)c1c(O)ccc2ccccc12 (stereo not drawn)	> 92.9	> 63.3	48.4	> 100	36.9	20.4	73.9	> 100	51.6	43.6	23.2								
COc1ccc(CCNCCCC2c3ccccc3-c3ccccc32)cc1OC	31.4	29	16.1	49.2	30.4	27	20.3	30.8	28.9	41.8	17.9								
FC1=C2CCCCCC2SC1(F)F (stereo not drawn)	> 100	> 100	> 100	47.8	> 100	52.4	> 100	> 100	> 100	> 100	> 100								
CCCC[C@H]1CCN2C[C@@H](O)[C@@H](O)[C@H]2[C@@H]1O	> 100	> 100	> 100	> 100	> 100	> 100	> 100	> 100	> 100	> 100	> 100								
N#Cc1sc2c(c1O)c(=O)n(-c1ccccc1)c(=S)n2-c1ccccc1	> 100	> 100	> 100	> 100	> 100	> 100	> 100	> 100	> 100	> 100	> 100								
CC1(C)[C@H]2Cc3cc(-c4cc5c(cn4)[C@@H]4C[C@H]([C@@H]5[C@@H]5c6cc(-c7cc8c(cn7)[C@@H]7C[C@H](C8)C7(C)C)ncc6[C@@H]6C[C@H]5C6(C)C)C4(C)C)ncc3[C@@H]1C2	> 100	> 100	> 100	> 100	> 100	> 100	> 100	> 100	> 100	> 100	> 100								
CCN(CC)CCO/N=C1/C=C2CCC3C(CC[C@@]4(C)C3CC[C@]4(C)O)[C@@]2(C)CC1 (stereo partly drawn)	45.9	13.7	5.35	18.9	18.9	15.6	80.1	5.72	29	20.4	36.6								
CCOP(=O)(OCC)/C(C#N)=C/c1c[nH]c2ccccc12	> 100	> 100	> 100	> 100	> 100	> 100	> 100	> 100	> 100	> 100	> 100								
C/C=C/[C@H](O[Si](C)(C)C(C)(C)C)[C@@H](O)/C=C/C(=O)OCC	> 100	27.7	39.2	43.9	32.3	28.4	45.2	42.8	> 100	34.6	82								
CC(C)C(NC(=O)C(Cc1ccccc1)NC(=O)[C@H]1CCC[C@H]1NC(=O)C(N)Cc1ccc(O)cc1)C(N)=O (stereo partly drawn)	> 100	> 100	> 100	> 100	> 100	> 100	> 100	> 100	> 100	> 100	> 100								
COc1cc2c(cc1OC)C(=O)N(NC1=NCCN1)C2=O	> 100	> 100	> 100	> 100	> 100	> 100	> 100	> 100	> 100	> 100	> 100								
CC(=O)O[C@@H](C1C[C@@H](C)[C@H]2[C@@](O)(O1)[C@H](O)[C@@]1(C)C3=CC[C@H]4C(C)(C)[C@@H](OC5OCC(O)C(O)C5O)CC[C@@]45C[C@@]35CC[C@]21C)C(C)(C)O (stereo partly drawn)	> 100	71.1	> 100	> 100	58.1	51	50.3	73.6	49	> 100	36.9								
Cc1cc2c(cc1Cl)SC(NNc1ccc([N+](=O)[O-])cc1)=NS2(=O)=O	> 10	> 10	> 10	> 10	> 10	> 10	> 10	> 10	> 10	> 10	> 10								
